Reference: patent US12268674B2, “Mi-2β inhibitor as an immunotherapy agent” (BioVentures, LLC, priority 2021, dated 2025)

How the values were obtained:
NUDT7 = target: T1, NUDT7 (Homo sapiens, UniProt P0C024); test: ATPase profile (ATP acyl phosphate probe); assay type: binding; settings: NUDT7, SEQ ID NO: 147, ATP BS
T1 construct: to get the native cell lysate; endogenous in cells; host or cells: A375

HSP60 = target: T2, HSP60 (Homo sapiens, UniProt P10809); test: ATPase profile (ATP acyl phosphate probe); assay type: binding; settings: HSP60, SEQ ID NO: 94, ATP BS
T2 construct: to get the native cell lysate; endogenous in cells; host or cells: A375

PGK1 = target: T3, PGK1 (Homo sapiens, UniProt P00558); test: ATPase profile (ATP acyl phosphate probe); assay type: binding; settings: PGK1, SEQ ID NO: 160, ATP BS
T3 construct: to get the native cell lysate; endogenous in cells; host or cells: A375 cell lysate

B16F10 cells = test: Co-culture assay of B16F10 cells with activated Pmel-1 T cells; assay type: cell-based, mouse; settings: 25 μM; IFN-γ pretreated; activated Pmel-1 T cells 1:1, three days
Procedure: Pmel-1 TCR transgenic mice were purchased from Jackson Laboratory (stock #005023). The CD8 T cells were isolated from spleen and lymph nodes from Pmel-1 transgenic mice using the CD8a^+ T Cell Isolation Kit, mouse (Miltenyi Biotec, Order no: 130-104-075) according to the manufacturer's protocol. Freshly isolated CD8 T cells were stimulated with anti-CD3/CD28 beads (Thermo Fisher Scientific #11452D) for 3 days, and then the recombinant mouse IL-2 (Biolegend, #575406) was added at 20 ng/ml. After 6 days activation, T cells were used for co-culture with B16F10 cells.
B16F10 cells with shMi-2β or shScrambles were transfected with GFP expression vector pcDNA3-EGFP (Plasmid #13031), and the stable cell line was selection with 800 μg/mL G418. For in vitro validation, Mi-2β-deficient B16F10 cells (GFP positive) were mixed with control B16F10 cells (GFP negative) at a 1:1 ratio. The cells were treated with 10 ng/ml of IFN-γ for 24 hours, and then co-cultured with activated Pmel-1 T cells. After three days, the depletion of Mi-2β knockdown B16F10 cells was determined by FACS, comparing the percentage of knockdown cells (GFP positive) to control B16F10 cells (GFP negative).

[1] = target: T4, recombinant purified human Mi-2β protein (Homo sapiens, UniProt Q14839); test: FRET-based nucleosome repositioning assay (EpiDyne-FRET); assay type: biochemical
T4 construct: made in house
Procedure: To screen small molecules that inhibit Mi-2β activity, Homology Modeling was carried out using Structure Prediction Wizard in Prime (49, 50). Mi-2β belongs to the CHD family of chromatin remodelers, which share highly conserved ATPase/helicase domains (51, 52). The Homology Model of Mi-2β was generated using the yeast CHD1 structure (PDB code: 3MWY) as template and the sequence was obtained from Uniprot (53), which clearly depicted the interaction of Mi-2β binding pocket and ATP (FIG. 10a). Virtual screening was done with the enzyme hinge region ligands database and nucleoside mimetic database from Enamine. All ligands of ˜23,010 compounds were docked to the ATP binding site using SP docking and post-processed with Prime MM-GBSA. Ligands with a methyldihydroimidazopyridinone structure were predicted to bind best to the ATP binding region of Mi-2β. To analyze biochemically the inhibitory activity of those inhibitors, a Fluorescence Resonance Energy Transfer (FRET)-based nucleosome repositioning assay (54, 55) was designed and modified using recombinant purified human Mi-2β protein to screen an in-house library of small molecular compounds with a methyldihydroimidazopyridinone structure (FIG. 10b). Briefly, the recombinant nucleosome substrates consist of a Cy5-labeled human histone octamer (H2A T120C-Cy5) wrapped with 5′ Cy3-labeled DNA, which contains a terminal nucleosome 601 positioning sequence. The 601 sequence provides the most thermodynamically preferred locations on DNA for histone octamer (56). FRET signaling was monitored by exciting the nucleosomes at the Cy3 absorption maximum and measuring Cy5 emissions and consequently the FRET signal is at a maximum at the assembled starting point. In the presence of ATP, Mi-2β induces the histone octamer to translocate along the DNA such that the Cy3-labeled DNA 5′ end is moved away from the Cy5-labeled octamer and consequently the FRET signal is decreased (FIG. 10b). The reaction conditions for nucleosome repositioning were modified through multiple rounds of optimization and validation (FIG. 10c-d). […]

GSS = target: T5, GSS (Homo sapiens, UniProt P48637); test: ATPase profile (ATP acyl phosphate probe); assay type: binding
T5 construct: endogenous in cells; host or cells: A375 cell lysate

ABCC3 = target: T6, ABCC3 (Homo sapiens, UniProt O15438); test: ATPase profile (ATP acyl phosphate probe); assay type: binding
T6 construct: host or cells: A375 cell lysate

NME3 = target: T7, NME3 (Homo sapiens, UniProt Q13232); test: ATPase profile (ATP acyl phosphate probe); assay type: binding; settings: NME3, SEQ ID NO: 134, ATP BS
T7 construct: to get the native cell lysate; endogenous in cells; host or cells: A375
T7 sequence (Q13232 whole entry): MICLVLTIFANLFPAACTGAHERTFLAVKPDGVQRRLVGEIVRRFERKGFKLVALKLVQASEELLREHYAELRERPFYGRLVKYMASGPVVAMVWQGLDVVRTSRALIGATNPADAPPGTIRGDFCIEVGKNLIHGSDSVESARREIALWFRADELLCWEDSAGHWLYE

T4 sequence (Q14839 whole entry): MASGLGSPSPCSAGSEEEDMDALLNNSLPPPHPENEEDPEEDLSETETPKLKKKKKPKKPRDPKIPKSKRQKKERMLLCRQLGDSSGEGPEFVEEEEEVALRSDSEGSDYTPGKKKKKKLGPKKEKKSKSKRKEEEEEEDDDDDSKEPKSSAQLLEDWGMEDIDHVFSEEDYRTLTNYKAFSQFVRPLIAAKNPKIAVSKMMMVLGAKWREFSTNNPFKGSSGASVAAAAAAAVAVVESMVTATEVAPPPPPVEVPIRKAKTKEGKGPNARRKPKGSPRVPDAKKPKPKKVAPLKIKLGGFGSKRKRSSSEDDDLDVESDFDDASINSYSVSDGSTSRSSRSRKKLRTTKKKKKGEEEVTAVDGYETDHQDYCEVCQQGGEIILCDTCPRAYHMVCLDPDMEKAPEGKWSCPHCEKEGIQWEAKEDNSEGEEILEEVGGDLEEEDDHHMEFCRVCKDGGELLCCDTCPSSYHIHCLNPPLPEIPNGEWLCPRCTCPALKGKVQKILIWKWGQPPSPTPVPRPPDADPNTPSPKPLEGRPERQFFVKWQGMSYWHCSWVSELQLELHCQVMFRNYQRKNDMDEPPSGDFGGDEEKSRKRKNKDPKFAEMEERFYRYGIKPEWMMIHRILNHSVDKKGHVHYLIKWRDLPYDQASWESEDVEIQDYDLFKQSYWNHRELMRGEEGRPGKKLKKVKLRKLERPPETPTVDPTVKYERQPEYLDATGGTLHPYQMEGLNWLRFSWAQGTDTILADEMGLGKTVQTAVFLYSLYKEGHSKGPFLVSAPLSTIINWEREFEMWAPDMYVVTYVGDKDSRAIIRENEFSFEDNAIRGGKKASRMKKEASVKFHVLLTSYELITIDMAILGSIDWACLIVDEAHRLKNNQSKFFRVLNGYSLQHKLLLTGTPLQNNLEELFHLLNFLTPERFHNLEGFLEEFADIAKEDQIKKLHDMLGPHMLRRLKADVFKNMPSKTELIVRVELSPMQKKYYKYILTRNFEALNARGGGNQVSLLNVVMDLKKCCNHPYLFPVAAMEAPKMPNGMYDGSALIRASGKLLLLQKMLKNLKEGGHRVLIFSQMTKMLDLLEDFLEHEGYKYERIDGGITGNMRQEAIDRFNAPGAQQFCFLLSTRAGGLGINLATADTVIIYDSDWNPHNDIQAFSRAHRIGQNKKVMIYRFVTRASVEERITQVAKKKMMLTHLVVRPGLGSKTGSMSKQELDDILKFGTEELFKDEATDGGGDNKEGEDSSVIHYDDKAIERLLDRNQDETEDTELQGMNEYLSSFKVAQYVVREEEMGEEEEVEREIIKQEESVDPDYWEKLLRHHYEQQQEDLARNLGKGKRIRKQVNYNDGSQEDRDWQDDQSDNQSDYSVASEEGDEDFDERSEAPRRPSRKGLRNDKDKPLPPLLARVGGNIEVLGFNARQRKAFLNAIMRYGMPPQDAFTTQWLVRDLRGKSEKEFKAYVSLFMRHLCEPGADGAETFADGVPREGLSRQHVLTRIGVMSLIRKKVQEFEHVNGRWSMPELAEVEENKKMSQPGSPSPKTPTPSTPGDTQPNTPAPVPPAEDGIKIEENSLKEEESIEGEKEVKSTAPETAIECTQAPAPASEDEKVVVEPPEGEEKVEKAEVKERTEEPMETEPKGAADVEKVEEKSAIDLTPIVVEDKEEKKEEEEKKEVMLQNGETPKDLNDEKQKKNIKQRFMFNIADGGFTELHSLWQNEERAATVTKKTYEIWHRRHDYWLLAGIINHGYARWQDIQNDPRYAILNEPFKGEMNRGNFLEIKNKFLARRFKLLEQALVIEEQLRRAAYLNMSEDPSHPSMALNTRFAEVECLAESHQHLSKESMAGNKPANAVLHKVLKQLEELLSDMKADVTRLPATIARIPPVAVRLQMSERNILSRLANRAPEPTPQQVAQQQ
T5 sequence (P48637 whole entry): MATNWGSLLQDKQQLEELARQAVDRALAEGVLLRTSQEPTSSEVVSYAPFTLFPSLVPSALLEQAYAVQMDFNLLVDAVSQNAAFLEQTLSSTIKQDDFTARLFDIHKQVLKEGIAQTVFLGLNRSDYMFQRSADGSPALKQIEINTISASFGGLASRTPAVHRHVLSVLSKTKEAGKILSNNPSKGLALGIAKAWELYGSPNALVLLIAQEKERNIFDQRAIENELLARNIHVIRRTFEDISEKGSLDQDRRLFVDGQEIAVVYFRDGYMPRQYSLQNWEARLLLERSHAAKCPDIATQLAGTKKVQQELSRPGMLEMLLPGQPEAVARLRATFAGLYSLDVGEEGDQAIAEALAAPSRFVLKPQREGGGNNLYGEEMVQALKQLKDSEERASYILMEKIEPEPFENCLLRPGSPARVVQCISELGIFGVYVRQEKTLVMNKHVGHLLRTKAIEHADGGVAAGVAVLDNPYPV
T6 sequence (O15438 whole entry): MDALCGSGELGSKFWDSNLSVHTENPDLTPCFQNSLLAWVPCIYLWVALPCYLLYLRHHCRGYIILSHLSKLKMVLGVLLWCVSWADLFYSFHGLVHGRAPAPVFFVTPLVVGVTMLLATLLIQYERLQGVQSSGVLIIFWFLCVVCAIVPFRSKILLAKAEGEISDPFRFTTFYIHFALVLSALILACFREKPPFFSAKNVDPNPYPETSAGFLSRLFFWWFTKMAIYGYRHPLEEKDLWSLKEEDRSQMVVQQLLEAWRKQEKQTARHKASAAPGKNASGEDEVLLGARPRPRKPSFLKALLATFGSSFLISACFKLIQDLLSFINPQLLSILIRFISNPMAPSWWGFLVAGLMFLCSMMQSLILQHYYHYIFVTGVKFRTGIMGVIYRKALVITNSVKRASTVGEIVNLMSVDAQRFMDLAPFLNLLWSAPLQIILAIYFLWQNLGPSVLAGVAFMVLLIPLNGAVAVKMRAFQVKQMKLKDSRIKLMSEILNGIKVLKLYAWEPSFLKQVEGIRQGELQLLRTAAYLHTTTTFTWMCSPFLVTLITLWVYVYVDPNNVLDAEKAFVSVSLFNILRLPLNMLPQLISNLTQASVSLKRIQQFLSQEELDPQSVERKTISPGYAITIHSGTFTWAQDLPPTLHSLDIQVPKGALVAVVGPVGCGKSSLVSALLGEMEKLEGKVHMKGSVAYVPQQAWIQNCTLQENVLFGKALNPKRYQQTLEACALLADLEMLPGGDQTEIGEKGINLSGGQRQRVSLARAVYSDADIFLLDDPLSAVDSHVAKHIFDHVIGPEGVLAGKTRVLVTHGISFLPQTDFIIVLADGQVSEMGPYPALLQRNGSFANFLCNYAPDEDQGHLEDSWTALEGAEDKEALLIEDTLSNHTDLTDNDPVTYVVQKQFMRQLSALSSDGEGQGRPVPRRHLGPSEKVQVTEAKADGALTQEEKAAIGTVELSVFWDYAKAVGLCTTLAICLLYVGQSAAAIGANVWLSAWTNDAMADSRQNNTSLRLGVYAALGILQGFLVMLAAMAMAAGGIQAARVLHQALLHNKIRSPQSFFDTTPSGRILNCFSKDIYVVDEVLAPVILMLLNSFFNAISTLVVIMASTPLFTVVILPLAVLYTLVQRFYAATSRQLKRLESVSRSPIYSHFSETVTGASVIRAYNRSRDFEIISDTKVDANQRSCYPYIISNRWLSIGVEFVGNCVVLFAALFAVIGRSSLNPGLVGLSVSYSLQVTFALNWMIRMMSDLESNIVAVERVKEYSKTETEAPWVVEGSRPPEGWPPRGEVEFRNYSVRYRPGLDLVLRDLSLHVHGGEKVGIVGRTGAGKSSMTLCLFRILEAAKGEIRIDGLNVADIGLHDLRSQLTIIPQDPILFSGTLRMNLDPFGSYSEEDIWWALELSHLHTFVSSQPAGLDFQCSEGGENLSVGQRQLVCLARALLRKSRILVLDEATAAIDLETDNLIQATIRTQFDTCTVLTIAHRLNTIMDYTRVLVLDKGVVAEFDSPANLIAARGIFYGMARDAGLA
T3 sequence (P00558 whole entry): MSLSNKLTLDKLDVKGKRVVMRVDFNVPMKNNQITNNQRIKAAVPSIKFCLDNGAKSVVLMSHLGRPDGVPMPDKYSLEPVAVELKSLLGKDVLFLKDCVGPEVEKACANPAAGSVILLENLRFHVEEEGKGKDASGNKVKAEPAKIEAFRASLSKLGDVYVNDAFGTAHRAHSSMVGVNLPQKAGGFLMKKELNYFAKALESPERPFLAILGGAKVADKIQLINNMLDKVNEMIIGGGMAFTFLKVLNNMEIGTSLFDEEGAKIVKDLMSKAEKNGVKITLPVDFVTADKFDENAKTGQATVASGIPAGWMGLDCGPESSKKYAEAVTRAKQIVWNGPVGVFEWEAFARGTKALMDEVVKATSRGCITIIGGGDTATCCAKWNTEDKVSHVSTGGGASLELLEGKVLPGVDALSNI
T2 sequence (P10809 27-573): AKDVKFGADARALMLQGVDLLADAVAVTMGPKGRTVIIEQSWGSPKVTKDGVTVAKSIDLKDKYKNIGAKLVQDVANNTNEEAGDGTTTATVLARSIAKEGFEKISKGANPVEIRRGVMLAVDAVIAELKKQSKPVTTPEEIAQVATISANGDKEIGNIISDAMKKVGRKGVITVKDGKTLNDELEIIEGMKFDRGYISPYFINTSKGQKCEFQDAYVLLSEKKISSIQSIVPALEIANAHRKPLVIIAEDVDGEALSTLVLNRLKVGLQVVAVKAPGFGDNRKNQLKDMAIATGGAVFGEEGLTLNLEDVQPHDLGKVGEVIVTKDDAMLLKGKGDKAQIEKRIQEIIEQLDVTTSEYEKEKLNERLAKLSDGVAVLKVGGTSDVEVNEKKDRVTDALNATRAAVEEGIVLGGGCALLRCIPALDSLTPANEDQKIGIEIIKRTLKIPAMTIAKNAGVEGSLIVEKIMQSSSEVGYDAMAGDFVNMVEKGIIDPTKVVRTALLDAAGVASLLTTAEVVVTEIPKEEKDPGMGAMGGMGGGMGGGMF

## Cn1c(=O)[nH]c2ccc(-c3cccc(C(=O)NC4CCn5ccnc5C4)c3)cc21 (centres unmarked) [Z36-MP5, 3-(3-methyl-2-oxo-2,3-dihydro-1H-benzo[d]imidazol-5-yl)-N-(5,6,7,8-tetrahydroimidazo[1,2-a]pyridin-7-yl)benzamide]
NUDT7
  Inhibition (%) by 1 μM Z36-MP5: 19.75%
HSP60
  Inhibition (%) by 1 μM Z36-MP5: 11.39%
PGK1
  Inhibition (%) by 1 μM Z36-MP5: −4.49%
B16F10 cells
  T cell-mediated killing of B16F10 cells: significantly induced
[1]; FRET-based nucleosome repositioning assay, read-out: IC50 against Mi-2β
  IC50: 82 ± 13 nM
[1]; ratio of IC50 against Mi-2β
  fold more potent than the original compound Z36: ~85 fold
GSS; SEQ ID NO: 87, ATP BS
  Inhibition (%) by 1 μM Z36-MP5: −5.02%
GSS; SEQ ID NO: 88, ATP BS
  Inhibition (%) by 1 μM Z36-MP5: 7.54%
ABCC3; ABCC3, SEQ ID NO: 9, ATP BS
  Inhibition (%) by 1 μM Z36-MP5: 4.57%
ABCC3; ABCC3, SEQ ID NO: 10, ATP BS
  Inhibition (%) by 1 μM Z36-MP5: 9.43%
NME3
  Inhibition (%) by 1 μM Z36-MP5: 1.91%
